Results published in the CheMixHub viscosity set.

Test: xn = mol fraction of the nth substance listed

CCCCCCC(C)O (stereo not drawn) + CCCCCCCC
298.15 K, 101 kPa
Conditions | viscosity [mPa·s]
x2 = 0.0487 | 5.956
x2 = 0.1002 | 5.301
x2 = 0.1498 | 4.654
x2 = 0.2006 | 3.998
x2 = 0.2516 | 3.364
x2 = 0.3003 | 2.796
x2 = 0.3538 | 2.228
x2 = 0.4003 | 1.79
x2 = 0.4466 | 1.411
x2 = 0.5001 | 1.049
x2 = 0.5517 | 0.778
x2 = 0.6002 | 0.59
x2 = 0.6539 | 0.454
x2 = 0.6994 | 0.39
x2 = 0.7449 | 0.366
x2 = 0.8 | 0.376
x2 = 0.8465 | 0.402
x2 = 0.9003 | 0.434
x2 = 0.9521 | 0.441

c1ccncc1 + OCC(O)CO
101 kPa
Conditions | viscosity [mPa·s]
298.15 K, x1 = 0.6001 | 17.25
298.15 K, x1 = 0.8001 | 3.155
303.15 K, x1 = 0.4 | 66.75
308.15 K, x1 = 0.1 | 275.5
313.15 K, x1 = 0.2001 | 116.5
313.15 K, x1 = 0.4 | 36.35

c1c[nH]cn1 + CCCC[N+](CCCC)(CCCC)CCCC.[Br-]
101.3 kPa, x2 = 0.3
Conditions | viscosity [mPa·s]
293.15 K | 810
296.15 K | 540
303.15 K | 314
313.15 K | 144.8
323.15 K | 75

CCCCCCC(C)O (stereo not drawn) + c1ccccc1
viscosity [mPa·s], 101 kPa
Conditions | 298.15 K | 303.15 K
x2 = 0.0555 | 5.871 | 4.689
x2 = 0.1239 | 5.076 | 4.101
x2 = 0.1912 | 4.353 | 3.577
x2 = 0.2386 | 3.886 | 3.224
x2 = 0.3153 | 3.181 | 2.703
x2 = 0.4353 | 2.241 | 2.018
x2 = 0.4865 | 1.923 | 1.764
x2 = 0.6072 | 1.318 | 1.264
x2 = 0.6941 | 1.008 | 0.986
x2 = 0.7432 | 0.876 | 0.876
x2 = 0.8011 | 0.761 | 0.754
x2 = 0.8599 | 0.693 | 0.667
x2 = 0.909 | 0.655 | 0.608
x2 = 0.9541 | 0.637 | 0.58

CCCCCCCCCC(=O)O + CCCCCCCCCCCCCCC
100 kPa, x2 = 0.8127
Conditions | viscosity [mPa·s]
298.2 K | 2.95
308.2 K | 2.29
318.2 K | 1.83

[K+].[K+].[O]=[Cr](=[O])([O-])[O][Cr](=[O])(=[O])[O-] + O
viscosity [mPa·s], 101 kPa
Conditions | x1 = 0.001 | x1 = 0.003 | x1 = 0.0068 | x1 = 0.015
298.15 K | 0.89 | 0.9 | 0.91 | –
312.95 K | 0.66 | 0.67 | 0.68 | 0.73

CCCCCCC(C)O (stereo not drawn) + C1CCCCC1
303.15 K, 101.33 kPa
Conditions | viscosity [mPa·s]
x1 = 0.0999 | 0.9208
x1 = 0.2048 | 1.086
x1 = 0.303 | 1.317
x1 = 0.3982 | 1.601
x1 = 0.4667 | 1.847
x1 = 0.5235 | 2.072
x1 = 0.5347 | 2.124
x1 = 0.6961 | 2.908
x1 = 0.7992 | 3.516
x1 = 0.899 | 4.161

c1ccncc1 + CCC(C)=O
100 kPa
Conditions | viscosity [mPa·s]
308.15 K, x1 = 0.1006 | 0.3835
313.15 K, x1 = 0.597 | 0.5265
323.15 K, x1 = 0.4004 | 0.4095

C[N+](C)(C)CCO.NCCS(=O)(=O)[O-] + O
viscosity [mPa·s], 100 kPa
Conditions | x1 = 3.04e-05 | x1 = 5.1e-05 | x1 = 7.04e-05 | x1 = 9.62e-05 | x1 = 0.0001978 | x1 = 0.0004282 | x1 = 0.0006357 | x1 = 0.0009005 | x1 = 0.001375 | x1 = 0.001632
293.15 K | 1.014 | 1.017 | 1.019 | 1.022 | 1.028 | 1.036 | 1.041 | 1.046 | 1.052 | 1.054
298.15 K | 0.904 | 0.907 | 0.91 | 0.913 | 0.922 | 0.932 | 0.939 | 0.946 | 0.954 | 0.958
303.15 K | 0.811 | 0.814 | 0.817 | 0.82 | 0.828 | 0.839 | 0.846 | 0.853 | 0.861 | 0.863
308.15 K | 0.737 | 0.742 | 0.745 | 0.749 | 0.76 | 0.771 | 0.776 | 0.781 | 0.786 | 0.789
313.15 K | 0.675 | 0.68 | 0.684 | 0.688 | 0.699 | 0.709 | 0.715 | 0.72 | 0.723 | 0.724

c1ccncc1 + Cc1ccccc1C
viscosity [mPa·s], 101 kPa
Conditions | x2 = 0.1002 | x2 = 0.2001 | x2 = 0.2999 | x2 = 0.3993 | x2 = 0.4968 | x2 = 0.6002 | x2 = 0.6992 | x2 = 0.7985 | x2 = 0.8945
293.15 K | 0.9083 | 0.8811 | 0.8575 | 0.8434 | 0.8268 | 0.806 | 0.7925 | 0.7798 | 0.7769
303.15 K | 0.7933 | 0.7696 | 0.7498 | 0.7375 | 0.721 | 0.7069 | 0.6976 | 0.6881 | 0.6804
313.15 K | 0.7 | 0.6779 | 0.6586 | 0.6456 | 0.63 | 0.6195 | 0.6097 | 0.6015 | 0.595
323.15 K | 0.6145 | 0.5949 | 0.5776 | 0.5654 | 0.5525 | 0.5433 | 0.5347 | 0.528 | 0.5228

c1ccncc1 + CCCCn1cc[n+](C)c1.F[B-](F)(F)F
Conditions | viscosity [mPa·s]
298.15 K, 101 kPa, x1 = 0.1059 | 81.9
